Experimental data reported in patent EP0579202A1, “Sulfhydryl-complexing agents in clinical test elements” (Johnson & Johnson Clinical Diagnostics, Inc., priority 1992, dated 1994).

Experiments:
[1] = Salicylate element with and without silver nitrate (Example 3)
Experimental: Standard elements (without blocking reagent) were spotted with solutions containing human serum spiked with salicylate in concentrations between 0 and 60 mg/dL. After a 5 minute incubation at 37°C the reflectance density was measured at 540 nm. Predicted salicylate concentration can be determined by fitting a response curve through the reflectance densities produced.

[2] = Dry salicylate element with blocking agent in the spreading layer (Example 1); conditions: for Salicylate Prediction of Fluid Fluid B: serum with 40 mg/dL salicylate and 100 mg/dL NAC; for Salicylate Prediction of Fluid Fluid B / Salicylate Prediction of Fluid Fluid C / Salicylate Prediction of Fluid Fluid A: agent in spreading layer at given g/m²; for Salicylate Prediction of Fluid Fluid C / Salicylate Prediction of Fluid Fluid A: serum with 40 mg/dL salicylate; for Salicylate Prediction of Fluid Fluid C: one hour exposure to stopper containing 2-benzothiazolethiol; for Salicylate Prediction of Fluid Fluid A: 540 nm, 5 minute, 37°C; for reducing sulfhydryl interference: salicylate element
Experimental: In this example, a dry analytical element formulated for measuring salicylate was used. […] A series of serum samples containing known levels of salicylate were spotted on the various test elements. Absorbance was measured at 540 nm after a 5 minute incubation at 37°C. From this series, a relationship between element absorbance and salicylate level could be made.
Serum samples containing 40 mg/dL of salicylate (Fluid A) and either 100 mg/dL of NAC (Fluid B) or a one hour exposure to a stopper containing 2-benzothiazolethiol (Fluid C) were then spotted on the elements and their predicted salicylate levels determined.

[3] = Screening of sulfhydryl-blocking reagents for NAC interference in the standard SOX solution assay; type: biochemical; conditions: more NAC than N-ethyl maleimide
Experimental: (§1) A standard SOX reaction solution can be prepared containing in 1 mL; 100 mM TRIS-C1, pH 7.75, 200 mM sarcosine, 1.5 mM 4-AAP, 0.02% (by weight) phenol, and 5.9 Units peroxidase. All reagents are combined in the assay cuvette and incubated at 37°C for 10 minutes after which time 1 Unit/mL SOX is added to the solution to initiate reaction. Reactions are observed spectrophotometrically at 505 nm; millimolar extinction coefficient is 17.4.
A variety of materials were selected as examples of reagents that might complex with (bind) the sulfhydryl group of NAC and thus block interference. […] One group contains materials not effective under the conditions tested; a second group appeared to minimize NAC interference, but adversely affected the assay. For example, the solution became gel-like or color formation was impaired. It is possible that this group of materials would be effective if they were incorporated apart from the detection chemistry, for example, either attached to beads or polymers or in a separate layer in a multilayer slide format.
The third group contains materials that effectively eliminated NAC interference and had no effect on dye formation or enzyme rate. In each case, the blocking reagent alone (set d) had no effect on the detection system. When this group of blocking reagents and NAC were included in the reaction cuvette, SOX reaction rates improved markedly. […]

[4] = Effect of NAC on preformed indicator dye in the SOX reaction (bleaching); conditions: for Final absorbances: 505 nm
Experimental: as §1
When determining the effect of NAC on SOX activity, the standard test described above is carried out except that to allow the reaction to go to completion before NAC is added, only 0.1 mM sarcosine is added. Thus, we ensured that all color formation was complete (the sarcosine being depleted). Indicator dye formed in four cuvettes when SOX was added; absorbance endpoint was 1,800. NAC then was added to the cuvettes to the final concentration of 0, 1, 2.5 or 10 mM, and the changes in absorption monitored. Rapidly (less than 10 seconds) each cuvette containing MAC lost color, proportional to MAC concentration. Final absorbances were 1.880, 1.100, 0.600 and 0.150 for cuvette containing 0, 1, 2.5 or 10 mM NAC, respectively.

[5] = Placement of the blocking reagent in the dry salicylate element (Example 2); conditions: Serum w/ Salicylate w/ 100mg/dL N-acetyl cysteine; no blocking reagent
Description: Placement of the blocking reagent in the proper layer of the dry element is essential for stability. In this example, we placed the blocking reagent (0.5 g/m² of maleimide) in the spreading layer of one element, a location that is relatively hydrophobic in nature, and in the reagent layer of another element. […]

horse radish peroxidase = target: T1, horse radish peroxidase (Armoracia rusticana, UniProt P00433); assay: Effect of NAC on peroxidase activity (o-dianisidine dye formation); type: biochemical; conditions: 1 mM NAC in reaction mixture; 37°C; 430 nm
T1 sequence (P00433 31-338): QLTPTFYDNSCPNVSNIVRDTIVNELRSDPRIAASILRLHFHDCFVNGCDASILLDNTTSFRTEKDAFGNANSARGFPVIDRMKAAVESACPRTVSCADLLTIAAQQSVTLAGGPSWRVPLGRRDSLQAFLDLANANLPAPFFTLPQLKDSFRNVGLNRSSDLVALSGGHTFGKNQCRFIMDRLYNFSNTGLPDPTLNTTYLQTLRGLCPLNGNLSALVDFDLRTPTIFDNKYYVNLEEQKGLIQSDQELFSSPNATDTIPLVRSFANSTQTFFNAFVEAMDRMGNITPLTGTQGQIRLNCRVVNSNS
Experimental: One mL reaction solution was prepared containing 100 mM TRIS-C1, pH 7.75, 0.88 mM H₂O₂, and 0.157 mM o-dianisidine. All reagents were combined in the assay cuvette and incubated at 37°C for 10 minutes after which time 0.59 Unit of horse radish peroxidase was added to the solution to initiate reaction. Reactions were monitored spectrophotometrically at 430 nm; millimolar extinction coefficient was 11.3.

[6] = Acetaminophen element with and without maleimide (Example 4); conditions: n-acetylcysteine at 100 mg/dL
Experimental: This example is similar to Example 3 except that the analyte is acetaminophen and the element used for testing is the one shown in Table VII below.
Human serum spiked with acetaminophen varying in concentration between 1 and 294 mg/dL were spotted on the standard element and the element of the invention. After incubating for 5 minutes at 37°C, reflectance density was measured at 670 nm. Predictions of acetaminophen concentration were obtained as was done for salicylate concentration in Example 3. Differences between the predicted values and the values actually obtained from the two elements (standard and the invention) are shown in Table VIII.

With Sc1nc2ccccc2s1 [2-benzothiazolethiol] the “bias, Standard element” value ([1]; Salicylate at 15 mg/dL, 1 hour contact w/ rubber stoppers containing 2-benzothiazolethiol) was -12.9 mg/dL bias and the “bias, Standard element” value ([1]; Salicylate at 40 mg/dl, 1 hour contact w/ rubber stoppers containing 2-benzothiazolethiol) was -31.5 mg/dL bias.
In the case of NC(=O)CI [Iodoacetamide], the “Salicylate Prediction of Fluid Fluid B” value [2] is reported as 12 mg/dL, the “Salicylate Prediction of Fluid Fluid C” value [2] is reported as 42 mg/dL and the “Salicylate Prediction of Fluid Fluid A” value [2] is reported as 40 mg/dL.
In the case of CCN1C(=O)C=CC1=O [N-ethyl-maleimide], the enzyme rate [3] is reported as “no improvement in enzyme rate is observed”.
For CC(=O)N[C@@H](CS)C(=O)O [NAC, N-acetyl cysteine], the Final absorbances ([4]; 1 mM NAC added after colour formation complete) was 1.100, the Final absorbances ([4]; 2.5 mM NAC added after colour formation complete) was 0.600 and the Final absorbances ([4]; 10 mM NAC added after colour formation complete) was 0.150. The “time in which cuvette lost color” value ([4]; cuvettes with 1, 2.5 or 10 mM NAC) was “less than 10 seconds”, the “salicylate prediction, Standard Element” value [5] was 0.0 mg/dL and the “bias, Standard element” value ([1]; Salicylate at 15 mg/dL, n-acetylcysteine at 102 mg/dL) was -11.32 mg/dL bias. For the same molecule, the “bias, Standard element” value ([1]; Salicylate at 40 mg/dl, n-acetylcysteine at 102 mg/dL) was -40 mg/dL bias, the “peroxidase activity, as monitored by dye formation” value (horse radish peroxidase) was “significantly inhibited” and the “bias, Standard element” value ([6]; Acetaminophen at 1 mg/dL) was -1.0 mg/dL bias. For the same molecule, the “bias, Standard element” value ([6]; Acetaminophen at 52 mg/dl) was -52 mg/dL bias and the “bias, Standard element” value ([6]; Acetaminophen at 202 mg/dL) was -200 mg/dL bias.
With Fe(NO)₃ the “Salicylate Prediction of Fluid Fluid B” value [2] was 0.0 mg/dL, the “Salicylate Prediction of Fluid Fluid C” value [2] was 17 mg/dL and the “Salicylate Prediction of Fluid Fluid A” value [2] was 40 mg/dL.
For Gold Chloride, the reducing sulfhydryl interference [2] was “work well”, the “Salicylate Prediction of Fluid Fluid B” value [2] was 40 mg/dL and the “Salicylate Prediction of Fluid Fluid C” value [2] was 40 mg/dL. For the same molecule, the “Salicylate Prediction of Fluid Fluid A” value [2] was 40 mg/dL.
In the case of Silver Nitrate, the “bias, Std w/ AgNO3” value ([1]; Salicylate at 15 mg/dL, 1 hour contact w/ rubber stoppers containing 2-benzothiazolethiol, 0.4 g/m² silver nitrate) is reported as 0.3 mg/dL bias, the “bias, Std w/ AgNO3” value ([1]; Salicylate at 15 mg/dL, n-acetylcysteine at 102 mg/dL, 0.4 g/m² silver nitrate in spreading layer) is reported as -0.01 mg/dL bias and the “bias, Std w/ AgNO3” value ([1]; Salicylate at 40 mg/dl, 1 hour contact w/ rubber stoppers containing 2-benzothiazolethiol, 0.4 g/m² silver nitrate) is reported as 0.3 mg/dL bias. The “bias, Std w/ AgNO3” value ([1]; Salicylate at 40 mg/dl, n-acetylcysteine at 102 mg/dL, 0.4 g/m² silver nitrate) was -1.2 mg/dL bias, the reducing sulfhydryl interference [2] was “work well” and the “Salicylate Prediction of Fluid Fluid B” value [2] was 40 mg/dL. The “Salicylate Prediction of Fluid Fluid C” value [2] was 40 mg/dL and the “Salicylate Prediction of Fluid Fluid A” value [2] was 40 mg/dL.
